Measurements taken from publication PMC10120551, “Novel Glu-based pyrazolo[3,4-d]pyrimidine analogues: design, synthesis and biological evaluation as DHFR and TS dual inhibitors” (Journal of Enzyme Inhibition and Medicinal Chemistry, 2023).

How the values were obtained:
[1] = tested on: full panel of 59 cancer cells; test: NCI one-dose screen (SRB), full panel; assay type: cell-based, human; conditions: Homo sapiens; mean over full panel of 59 cell lines; 10 µM single dose; read-out: MGI% (mean growth inhibition percentage)
Procedure: The growth percentage (G%) and cell viability of the herein target compounds 6a–l, 7a,b, and 9a–c have been screened towards a full panel of 59 cancer cells at NCI’s Developmental Therapeutics Program (NCI-DTP, MD, USA)[21]. The submitted analogues were initially examined for preliminary in vitro anticancer activity using sulforhodamine B (SRB) assay at 10 µM as a single dose to evaluate cell growth and viability according to the procedure of Drug Evaluation Branch[22]^,[23].
Different types of tumours – colon, NSCLC, leukaemia, CNS, renal, breast, ovarian, melanoma, and prostate cancers – were investigated as a full panel of 59 cell lines, and the attained results are cited in Figures S1–S17 (see Supplementary Material) where the value recorded is the growth relative to that of both the negative control and zero-time number of cells in which both growth inhibition (GI%; 0–100%) and lethality (L%; 0–100%) percentages can be identified. The growth inhibition means percentages (MGI%) for the examined target analogues towards the different treated 59 cancer cells were presented in Figure 2.
The designed analogues were submitted to NCI-Chemotherapeutic Agents Repository (MD, USA) for screening on a panel of 59 cancer cell lines. All compounds were initially examined at 10 µM concentration (Single-Dose Screen), and then the most efficient analogue 6i was screened further at 0.01–100 µM (Five-Dose Screen). The screening procedures were performed according to NCI-Drug Evaluation Branch protocol using SRB protein assay, as described previously[21]^,[66]. The experimental procedures were detailed in the Supporting Information.

[2] = tested on: HSF (Normal human skin fibroblast) cells; test: MTT cytotoxicity assay; assay type: cell-based; conditions: HSF normal fibroblasts, 48 h, mean ± SD from triplicates
Procedure: The results hinted that 6i elicited stronger cytotoxicity and higher selectivity for cancer than normal cells.
The MTT assay was carried out according to the procedure cited earlier. Briefly, in a 96-well plate, either cancer or normal cells were seeded (10^6 cells/cm^2; 100 µL/well) and incubated for 12 h at 37 °C and CO2 (5%), then serial dilutions of compound 6i were added and incubated for 48 h using DMSO control (0.5% V/V). MTT (3-(4,5-dimethylthiazoyl)-2,5-diphenyl-tetrazolium bromide; Cat. No. M-5655) 5 mg/mL was then added. After 4 h incubation, the formed MTT formazan crystals were solubilised by 10% Triton X-100 plus 0.1 N HCl in anhydrous isopropanol. The absorbance was read using a Bioline plate reader at λ570–630 nm[25–29]. The selectivity of 6i towards HSF cells was also determined as follows[30]^,[31]: SI=IC50HSF cells/IC50of cancer cells

MCF-7 cells = test: Cell cycle analysis (PI, flow cytometry); assay type: cell-based, human; conditions: MCF-7, 10 µM, 48 h; DMSO control 24.95%
Procedure: Figure 5. Flow cytometric analyses: cell cycle distribution analysis using PI staining method in which MCF-7 cells were treated by 6i (10 µM) and DMSO (negative control; NC) for 48 h; (A) 6i, (B) DMSO, (C) cells percentage in different phases (G0-G1, S, G2/M); apoptotic induction using annexin-V-FITC/PI staining method in which cancer cells were treated by 6i (10 µM) and DMSO (negative control; NC) for 24 h; (D) 6i, (E) DMSO, (F) histogram for induction of apoptosis.
The cell cycle assay was carried out according to the previously reported[36]^,[37]. Briefly, in a six-well plate, 2 ml of MCF-7 cells were seeded per well and incubated overnight at 37 °C and CO2 (5%). After 12 h incubation with serum-free medium, they were treated with 10 μM of 6i, incubated for 48 h, then washed twice with 1× PBS, trypsinised and centrifuged for 5 min (500 xg) at 4 °C. And then the cell pellet, in ice-cold 1× PBS, was fixed with absolute ethanol at −20 °C for 2 h, washed with 1× PBS ice-cold solution and finally stained with propidium iodide (PI)/RNase (Abcam, ab139418) for 0.5 h at 25 °C in the dark. flow cytometry determined the DNA content in cell phases using BD FACS Calibur[36]^,[37].

K-562 = conditions: K-562, Leukaemia; five-dose 0.01–100 µM
HCT-15 = conditions: HCT-15, Colon cancer; five-dose 0.01–100 µM
HT29 = conditions: HT29, Colon cancer; five-dose 0.01–100 µM
SF-295 = conditions: SF-295, CNS cancer; five-dose 0.01–100 µM
SK-MEL-2 [3] = conditions: SK-MEL-2, Melanoma; five-dose 0.01–100 µM
SK-MEL-5 = conditions: SK-MEL-5, Melanoma; five-dose 0.01–100 µM
IGROV1 = conditions: IGROV1, Ovarian cancer; five-dose 0.01–100 µM
OVCAR-8 = conditions: OVCAR-8, Ovarian cancer; five-dose 0.01–100 µM
786-0 = conditions: 786-0, Renal cancer; five-dose 0.01–100 µM
MDA-MB-468 = conditions: MDA-MB-468, Breast cancer; five-dose 0.01–100 µM
NCI-H522 = test: cells; conditions: Homo sapiens
SNB-19 = test: cells; conditions: Homo sapiens
U251 = test: cells; conditions: Homo sapiens
SK-MEL-2 [4] = test: cells; conditions: Homo sapiens
DU-145 = test: cells; conditions: Homo sapiens
MDA-MB-231/ATCC = test: cells; conditions: Homo sapiens

CCOC(=O)CC[C@H](NC(=O)c1ccc(NC(=O)Cn2cnc3c(c(C)nn3-c3ccc(Br)cc3)c2=O)cc1)C(=O)OCC [Compound 6i]
inhibition at 10 µM [1]: 62% | IC50 [2]: 48.5 ± 2.43 µM | percentage of S-phase cells (MCF-7 cells): 36.29% | TGI (K-562): >100 µM | TGI (HCT-15): >100 µM | TGI (HT29): 71.7 µM | TGI (SF-295): 31.9 µM | TGI (SK-MEL-2 [3]): 89.1 µM | TGI (SK-MEL-5): 43.1 µM | TGI (IGROV1): 74.2 µM | TGI (OVCAR-8): >100 µM | TGI (786-0): >100 µM | TGI (MDA-MB-468): 51.3 µM | GI50 (NCI-H522; NCI-H522): 17.1 µM | CC50 (NCI-H522; NCI-H522, read-out: LC50): 85 µM | GI50 (SNB-19; SNB-19): 12.1 µM | CC50 (SNB-19; SNB-19, read-out: LC50): 61.3 µM | GI50 (U251; U-251): 13.2 µM | CC50 (U251; U-251, read-out: LC50): > 100 µM | GI50 (SK-MEL-2 [4]; SK-MEL-2): 27.6 µM | CC50 (SK-MEL-2 [4]; SK-MEL-2, read-out: LC50): > 100 µM | GI50 (DU-145; DU-145): 7.47 µM | CC50 (DU-145; DU-145, read-out: LC50): > 100 µM | GI50 (MDA-MB-231/ATCC; MDA-MB-231): 11.5 µM | CC50 (MDA-MB-231/ATCC; MDA-MB-231, read-out: LC50): 62.5 µM
